Results published in patent US12065445B2, “CDK2 inhibitors and methods of using the same” (Cedilla Therapeutics, Inc., priority 2021, dated 2024).

Test system: Kuramochi cells
Assay: BrdU Cell Proliferation Assay
Format: cell-based
Conditions: read-out: BrdU - KURAMOCHI.1: IC50
Experimental: A BrdU assay was used as a measure of proliferation based on the DNA replication process of proliferating cells. BrdU, a pyrimidine analog, is added to the cell culture and incorporated into the DNA of proliferating cells. The presence of the BrdU analog was then measured through a colorimetric ELISA. After fixation and permeabilization of cells, peroxidase-conjugated antibody recognizing BrdU is added and allowed to incubate, followed by thorough washing to remove unbound antibody. In order to quantify the amount of bound antibody, peroxidase substrate is added and produces a color that can be measured at 450 nm.
On day −1, Kuramochi cells (Sekisui XenoTech JCRB0098) were seeded at 2,000 cells/well in columns 2-12 of a 96 well plate (Corning, CLS3596) in 150 μL media and allowed to adhere overnight at 37 degree with 5% CO2.
On day 0, the source plate was prepared by adding 10 mM compounds and performing 3-fold serial dilutions for a 10-point dose response of each compound. Using a multichannel pipette, 2 μL of the contents of the source plate were stamped into an intermediate plate with 500 μL of RPMI 1640 Media, GlutaMAX Supplement (Life Technologies, 61870127) in each well of a Nunc 96 DeepWell™ plate, non-treated 96 DeepWell plate, 2 mL/well, sterile, natural, 60/cs (Sigma Z717274) and mixed thoroughly. 50 μL from each well of this intermediate plate were added to 4 wells of a 96-well plate with previously seeded Kuramochi cells.
On day 4, the plates were developed using the BrdU ELISA Cell Proliferation Assay according to manufacturer's instructions (Roche, 11647229001). Briefly, BrdU was diluted 1:100 in Gibco®, OptiMEM® and 20 μL/well was added, shaken for 10 minutes at 350 rpm, and then returned to the incubator for 1 hour. Following incubation, the medium was discarded, and the cells were fixed by adding 200 μL of Fix/Denature solution. The anti-BrdU peroxidase antibody was diluted 1:1000 in OptiMEM, added at 100 μL/well, and incubated while shaking (350 rpm) for one hour. Three washes with PBS were performed to remove any unbound antibody, followed by the addition of 100 μL of substrate solution to each well. 25 μL/well of 1M sulfuric acid solution was then added to halt the reaction, and plates were read out using an Envision spectrophotometer (Perkin Elmer) set to read 450 nm absorbance. Background absorbance values from empty wells were subtracted from all samples and then normalized to DMSO treated wells.

| SMILES | IC50 [µM] |
| --- | --- |
| CNC(=O)[C@@H](NC(=O)[C@H]1CN(C(=O)c2cncs2)CC12CN(C(=O)[C@H]1CC1(C)C)C2)[C@@H](C)OCC1CCCCC1 [I-129B] | > 10 |
| CNC(=O)[C@@H](NC(=O)[C@H]1CN(C(=O)c2c[nH]c3ccccc23)CC12CN(C(=O)[C@H]1CC1(C)C)C2)[C@@H](C)OCc1ccccc1 [I-72B] | > 10 |
| CNC(=O)[C@@H](NC(=O)[C@H]1CN(C(=O)c2cnn(Cc3ccccc3)c2)CC12CN(C(=O)[C@H]1CC1(C)C)C2)[C@@H](C)OCC1CCCCC1 [I-123B] | > 10 |
| CNC(=O)[C@@H](NC(=O)[C@@H]1CN(C(=O)C2CCOCC2)CC12CN(C(=O)[C@H]1CC1(C)C)C2)[C@@H](C)OCc1ccccc1 [I-38A] | > 10 |
| CC1(C)C[C@@H]1C(=O)N1CC2(CN(C(=O)c3cnn(Cc4ccccc4)c3)C[C@H]2C(=O)N2CCO[C@@H](Cc3ccccc3)C2)C1 [I-210] | > 10 |
| CC1(C)C[C@@H]1C(=O)N1CC2(CN(C(=O)c3cnn(Cc4ccccc4)c3)C[C@H]2C(=O)N[C@@H]2CCCN(CC3CCCCC3)C2)C1 [I-212] | > 10 |
| CNC(=O)[C@@H](NC(=O)[C@H]1CN(C(=O)c2cnn(Cc3ccccc3)c2)CC12CN(C(=O)CC1CCC1)C2)[C@@H](C)OCc1ccccc1 [I-27B] | > 10 |
| CNC(=O)[C@@H](NC(=O)[C@@H]1CN(C(=O)c2cnn(CC(F)(F)F)c2)CC12CN(C(=O)CC1CC1)C2)[C@@H](C)OCc1ccccc1 [I-43A] | > 10 |
| CNC(=O)[C@@H](NC(=O)[C@H]1CN(C(=O)c2cnn(Cc3ccccc3)c2)CC12CN(C(=O)C1(C)CC1)C2)[C@@H](C)OCc1ccccc1 [I-67B] | > 10 |
| CNC(=O)[C@@H](NC(=O)[C@H]1CN(C(=O)c2cnn(Cc3ccccc3)c2)CC12CN(C(=O)[C@H]1CC1(C)C)C2)[C@@H](C)OCC1(C(F)(F)F)CC1 [I-205B] | > 10 |
| CC1(C)C[C@@H]1C(=O)N1CC2(CN(C(=O)c3cnn(Cc4ccccc4)c3)C[C@H]2C(=O)NCC2CCCCO2)C1 (stereo partly shown) [I-221] | > 10 |
| C[C@@H](OCc1ccccc1)[C@H](NC(=O)C1CN(C(=O)c2cnn(Cc3ccccc3)c2)CC12CN(C(=O)[C@H]1CC1(C)C)C2)C(=O)NCCC(=O)O (stereo partly shown) [I-29] | > 10 |
| CNC(=O)[C@@H](NC(=O)[C@H]1CN(C(=O)c2scnc2Cl)CC12CN(C(=O)[C@H]1CC1(C)C)C2)[C@@H](C)OCC1CCCCC1 [I-157B] | > 10 |
| CNC(=O)[C@@H](NC(=O)[C@@H]1CN(C(=O)c2cnn(Cc3ccccc3)c2)CC12CN(C(=O)[C@H]1CC1(C)C)C2)[C@@H](C)O [I-88A, (S)-6-(1-benzyl-1H-pyrazole-4-carbonyl)-2-((S)-2,2-dimethylcyclopropane-1-carbonyl)-N-((2S,3R)-3-hydroxy-1-(methylamino)-1-oxobutan-2-yl)-2,6-diazaspiro[3.4]octane-8-carboxamide] | > 10 |
| CNC(=O)[C@@H](NC(=O)[C@@H]1CN(C(=O)c2cnn(Cc3ccccc3)c2)CC12CN(C(=O)[C@H]1CC1(C)C)C2)[C@@H](C)OCC(F)(F)F [I-204] | > 10 |
| CNC(=O)[C@@H](NC(=O)[C@H]1CN(C(=O)c2cncs2)CC12CN(C(=O)C(C)(C)C)C2)[C@@H](C)OCC1CCCCC1 [I-186B] | > 10 |
| CNC(=O)[C@@H](NC(=O)[C@H]1CN(C(=O)c2cnc(CC3CC3)s2)CC12CN(C(=O)[C@H]1CC1(C)C)C2)[C@@H](C)OCC1CCCCC1 [I-177B] | > 10 |
| CNC(=O)[C@@H](NC(=O)[C@H]1CN(C(=O)c2cnn(Cc3ccccc3)c2)CC12CN(C(=O)C1(CC3CC3)CC1)C2)[C@@H](C)OCc1ccccc1 [I-116B] | > 10 |
| CC1(C)C[C@@H]1C(=O)N1CC2(CN(C(=O)c3cnn(Cc4ccccc4)c3)C[C@H]2C(=O)NCCOCc2ccccc2)C1 [I-96A] | > 10 |
| C[C@H](CNC(=O)C1CN(C(=O)c2cnn(Cc3ccccc3)c2)CC12CN(C(=O)C1CC1(C)C)C2)OCc1ccccc1 (stereo partly shown) [I-7] | > 10 |
| CC1(C)C[C@@H]1C(=O)N1CC2(CN(C(=O)c3cnn(Cc4ccccc4)c3)C[C@H]2C(=O)N[C@H]2CCCN(C(=O)C3CCCCC3)C2)C1 [I-182] | 5 to 10 |
| CNC(=O)[C@@H](NC(=O)[C@@H]1CN(Cc2cnn(Cc3ccccc3)c2)CC12CN(C(=O)[C@H]1CC1(C)C)C2)[C@@H](C)OCc1ccccc1 [I-16A] | > 10 |
| CNC(=O)[C@@H](NC(=O)[C@H]1CN(C(=O)c2cnc(C3CC3)s2)CC12CN(C(=O)[C@H]1CC1(C)C)C2)[C@@H](C)OCC1CCCCC1 [I-178B] | > 10 |

| SMILES | IC50 [µM] |
| --- | --- |
| CNC(=O)[C@@H](NC(=O)[C@@H]1CN(C(=O)c2cnn(Cc3ccccc3)c2)CC12CN(C(=O)C1C(C)(C)C1(C)C)C2)[C@@H](C)OCc1ccccc1 [I-89A] | > 10 |
| COC(=O)C1(NC(=O)[C@@H]2CN(C(=O)c3cnn(Cc4ccccc4)c3)CC23CN(C(=O)[C@H]2CC2(C)C)C3)COC1 [I-142B] | > 10 |
| CNC(=O)[C@@H](NC(=O)[C@H]1CN(C(=O)c2cnn(Cc3ccccc3)c2)CC12CN(C(=O)[C@H]1CC1(C)C)C2)C(C)(C)SCc1ccccc1 [I-171B] | > 10 |
| CNC(=O)[C@@H](NC(=O)[C@H]1CN(C(=O)c2cnn(Cc3ccccc3)c2)CC12CN(C(=O)c1ccccc1)C2)[C@@H](C)OCc1ccccc1 [I-26B] | > 10 |
| CNC(=O)[C@@H](NC(=O)[C@@H]1CN(C(=O)c2cnn(CC3CCOCC3)c2)CC12CN(C(=O)[C@H]1CC1(C)C)C2)[C@@H](C)OCc1ccccc1 [I-95A] | > 10 |
| COC(=O)[C@@H](CO)NC(=O)[C@H]1CN(C(=O)c2cnn(Cc3ccccc3)c2)CC12CN(C(=O)[C@H]1CC1(C)C)C2 [I-187B] | > 10 |
| CC1(C)C[C@@H]1C(=O)N1CC2(CN(C(=O)c3cnn(Cc4ccccc4)c3)CC2C(=O)NC2CNCCOC2)C1 (stereo partly shown) [I-245] | > 10 |
| CNC(=O)[C@@H](NC(=O)[C@H]1CN(C(=O)c2cnc(C(F)(F)F)s2)CC12CN(C(=O)[C@H]1CC1(C)C)C2)[C@@H](C)OCC1CCCCC1 [I-161B] | > 10 |
| CNC(=O)[C@@H](NC(=O)[C@@H]1CN(C(=O)c2cnn(Cc3ccccc3)c2)CC12CN(C(=O)c1ccccc1)C2)[C@@H](C)OCc1ccccc1 [I-26A] | > 10 |
| CCCC(=O)N1CC2(C1)CN(C(=O)c1cnn(Cc3ccccc3)c1)C[C@H]2C(=O)N[C@H](C(=O)NC)[C@@H](C)OCc1ccccc1 [I-60A] | > 10 |
| C[C@@H](OCc1ccccc1)[C@H](NC(=O)C1CN(C(=O)c2cnn(Cc3ccccc3)c2)CC12CN(C(=O)[C@H]1CC1(C)C)C2)C(=O)N1CCOCC1 (stereo partly shown) [I-86] | > 10 |
| CC1(C)C[C@@H]1C(=O)N1CC2(CN(C(=O)c3cnn(Cc4ccccc4)c3)C[C@@H]2C(=O)NC2CCN(C(=O)c3ccccc3)CC2)C1 [I-61B] | > 10 |
| CC1(C)C[C@@H]1C(=O)N1CC2(CN(C(=O)c3cnn(Cc4ccccc4)c3)C[C@H]2C(=O)N2CCC[C@H](C(=O)NC3CCCCC3)C2)C1 [I-180] | > 10 |
| CNC(=O)[C@@H](NC(=O)[C@@H]1CN(C(=O)c2scnc2C)CC12CN(C(=O)[C@H]1CC1(C)C)C2)[C@@H](C)OCC1CCCCC1 [I-160A] | 0.5 to 5 |
| CNC(=O)[C@@H](NC(=O)[C@H]1CN(C(=O)c2cnn(Cc3ccccc3)c2)CC12CN(C(=O)[C@H]1CC1(C)C)C2)[C@@H](C)OCC1CCOCC1 [I-119B] | > 10 |
| C[C@@H](OCC1CCCCC1)[C@H](NC(=O)[C@H]1CN(C(=O)c2cnn(Cc3ccccc3)c2)CC12CN(C(=O)[C@H]1CC1(C)C)C2)C(=O)N1CC(C)(C)C1 [I-153B] | > 10 |
| C[C@@H](OCc1ccccc1)[C@H](NC(=O)C1CN(C(=O)c2cnn(Cc3ccccc3)c2)CC12CN(C(=O)[C@H]1CC1(C)C)C2)C(=O)NCCO (stereo partly shown) [I-30] | > 10 |
| CNC(=O)[C@@H](NC(=O)[C@@H]1CN(C(=O)c2cnn(Cc3ccccc3)c2)CC12CN(C(=O)C1(C#N)CC1)C2)[C@@H](C)OCc1ccccc1 [I-73A] | > 10 |
| CN(C(=O)[C@@H]1CCCN(C(=O)[C@@H]2CN(C(=O)c3cnn(Cc4ccccc4)c3)CC23CN(C(=O)[C@H]2CC2(C)C)C3)C1)C1CCCCC1 [I-181] | > 10 |
| CNC(=O)[C@@H](NC(=O)[C@@H]1CN(C(=O)c2cnc[nH]2)CC12CN(C(=O)[C@H]1CC1(C)C)C2)[C@@H](C)OCc1ccccc1 [I-44A] | > 10 |
| CC1(C)C[C@@H]1C(=O)N1CC2(CN(C(=O)c3cnn(Cc4ccccc4)c3)C[C@H]2C(=O)N[C@@H]2CCCN(C(=O)C3CCCCC3)C2)C1 [I-215] | > 10 |
| CNC(=O)[C@@H](NC(=O)[C@H]1CN(C(=O)c2sc(Cl)nc2C)CC12CN(C(=O)[C@H]1CC1(C)C)C2)[C@@H](C)OCC1CCCCC1 [I-208B] | > 10 |
| C[C@@H](OCc1ccccc1)[C@H](NC(=O)C1CN(C(=O)c2cnn(Cc3ccccc3)c2)CC12CN(C(=O)[C@H]1CC1(C)C)C2)C(=O)N1CCC(F)(F)CC1 (stereo partly shown) [I-85] | 0.5 to 5 |
